Experimental findings from PubChem BioAssay AID256 (DTP/NCI, 2004) are described below.

Molecules are shown by their SMILES. “And” between values parts separate entries of the source, which are not always exact repeats. Equal entries are not always repeated. Inconclusive results and toxic doses are left out.

The test deals with CD2F1 mice, L1210 leukemia ip, survival T/C. As to the kind of experiment: NCI In Vivo Anticancer Drug Screen. Data for tumor model L1210 Leukemia (intraperitoneal) in CD2F1 (CDF1) mice. As to conditions: higher = longer survival. The method in brief: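 Vehicle-treated tumor-bearing mice served as controls (C) for compound-treated mice (T). Reported figure is T divided by C.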

Where [1] appears, read: endpoint: mean survival time, dose: 25.0 mg/kg/injection, schedule: Q01DX009 (ip), vehicle: saline with Tween-80.
The mark [2] stands for this setting: endpoint: mean survival time, dose: 50.0 mg/kg/injection, schedule: Q01DX009 (ip), vehicle: saline with Tween-80.
Setting [3] is: endpoint: mean survival time, dose: 100.0 mg/kg/injection, schedule: Q01DX009 (ip), vehicle: saline with Tween-80.
[4] abbreviates: endpoint: mean survival time, dose: 100.0 mg/kg/injection, schedule: Q04DX003 (ip), vehicle: saline with Tween-80.
Where [5] appears, read: endpoint: mean survival time, dose: 100.0 mg/kg/injection, schedule: Q04DX003 (ip), vehicle: saline.
Where [6] appears, read: endpoint: mean survival time, dose: 200.0 mg/kg/injection, schedule: Q04DX003 (ip), vehicle: saline.
The mark [7] stands for this setting: endpoint: mean survival time, dose: 200.0 mg/kg/injection, schedule: Q01DX009 (ip), vehicle: saline with Tween-80.
[8] abbreviates: endpoint: mean survival time, dose: 200.0 mg/kg/injection, schedule: Q04DX003 (ip), vehicle: saline with Tween-80.
The mark [9] stands for this setting: endpoint: mean survival time, dose: 400.0 mg/kg/injection, schedule: Q01DX009 (ip), vehicle: saline with Tween-80.
Setting [10] is: endpoint: mean survival time, dose: 400.0 mg/kg/injection, schedule: Q04DX003 (ip), vehicle: saline with Tween-80.
[11] abbreviates: endpoint: mean survival time, dose: 25.0 mg/kg/injection, schedule: Q01DX001 (ip), vehicle: saline with Tween-80.
Where [12] appears, read: endpoint: mean survival time, dose: 50.0 mg/kg/injection, schedule: Q01DX001 (ip), vehicle: saline with Tween-80.
Setting [13] is: endpoint: mean survival time, dose: 100.0 mg/kg/injection, schedule: Q01DX001 (ip), vehicle: saline with Tween-80.
The mark [14] stands for this setting: endpoint: mean survival time, dose: 400.0 mg/kg/injection, schedule: Q04DX003 (ip), vehicle: saline.

In the case of `C[n+]1c(-c2cc(C(F)(F)F)cc(C(F)(F)F)c2)c2cc(N)ccc2c2ccc(N)cc21`, the T/C is 106 % of control (endpoint: mean survival time, dose: 6.25 mg/kg/injection, schedule: Q01DX005 (ip), vehicle: saline with Tween-80); 101 % of control (endpoint: mean survival time, dose: 12.5 mg/kg/injection, schedule: Q01DX005 (ip), vehicle: saline with Tween-80); 106 % of control (endpoint: mean survival time, dose: 25.0 mg/kg/injection, schedule: Q01DX005 (ip), vehicle: saline with Tween-80); 111 % of control (endpoint: mean survival time, dose: 50.0 mg/kg/injection, schedule: Q01DX005 (ip), vehicle: saline with Tween-80); 116 % of control (endpoint: mean survival time, dose: 100.0 mg/kg/injection, schedule: Q01DX005 (ip), vehicle: saline with Tween-80).

In the case of `NC(CSC(c1ccccc1)(c1ccccc1)c1ccc(F)cc1)C(=O)O` (stereo not drawn), the T/C runs as follows: (endpoint: mean survival time, dose: 25.0 mg/kg/injection, schedule: Q01DX009 (ip), vehicle: saline) 181 % of control; (endpoint: mean survival time, dose: 50.0 mg/kg/injection, schedule: Q01DX009 (ip), vehicle: saline) 192 % of control.

For the molecule `CCS(=O)(=O)C1(S(=O)(=O)CC)CCCCC1`, the T/C by setting is: (endpoint: mean survival time, dose: 100.0 mg/kg/injection, schedule: Q01DX001 (ip), vehicle: saline) 102 % of control; (endpoint: mean survival time, dose: 200.0 mg/kg/injection, schedule: Q01DX001 (ip), vehicle: saline) 102 % of control; (endpoint: mean survival time, dose: 400.0 mg/kg/injection, schedule: Q01DX001 (ip), vehicle: saline) 102 % of control.

Turning to `O=C(O)c1cc2c(Cl)cccc2[nH]1`, the T/C was 109 % of control under setting [1], 98 % of control under setting [2], 94 % of control under setting [3] and 106 % of control under setting [4].

Take `CCCC(C)C1=NC(C)(C)CCO1` (stereo not drawn): the T/C was 96 % of control (endpoint: mean survival time, dose: 12.5 mg/kg/injection, schedule: Q04DX002 (ip), vehicle: saline); 101 % of control (endpoint: mean survival time, dose: 25.0 mg/kg/injection, schedule: Q04DX002 (ip), vehicle: saline); 93 % of control (endpoint: mean survival time, dose: 50.0 mg/kg/injection, schedule: Q04DX002 (ip), vehicle: saline).

As for `COCCC1(CN2c3ccccc3Sc3ccc(Cl)cc32)CCN(C)C1` (stereo not drawn), the T/C runs as follows: under setting [5], 102 % of control; under setting [6], 105 % of control.

Regarding `CC(=O)Nc1ccc([N+](=O)[O-])cc1`, the T/C by setting is: under setting [3], 96 % of control; under setting [4], 90 % of control; under setting [7], 101 % of control; under setting [8], 98 % of control; under setting [9], 111 % of control; under setting [10], 98 % of control.

For the molecule `O=C(O)C(c1ccccc1)C(F)(F)F` (stereo not drawn), the T/C by setting is: under setting [3], 95 % of control; under setting [4], 108 % of control; under setting [7], 105 % of control; under setting [8], 94 % of control; under setting [9], 94 % of control; under setting [10], 92 % of control.

As to `COC(=O)CC1(C(=O)OC)OC(=O)c2ccccc2N1C` (stereo not drawn), the T/C is 103 % of control under setting [3], 106 % of control under setting [7] and 101 % of control under setting [9].

On to `CCCOC(=O)c1ccc(NC(=O)Nc2ccc(C(=O)OCC)cc2)cc1`, for which the T/C by setting is: under setting [11], 96 % of control; under setting [1], 88 % of control; (endpoint: mean survival time, dose: 25.0 mg/kg/injection, schedule: Q04DX002 (ip), vehicle: saline with Tween-80) 92 % of control and 95 % of control; (endpoint: mean survival time, dose: 25.0 mg/kg/injection, schedule: Q04DX003 (ip), vehicle: saline with Tween-80) 102 % of control; under setting [12], 93 % of control; under setting [2], 88 % of control and 94 % of control. The T/C is, setting by setting: (endpoint: mean survival time, dose: 50.0 mg/kg/injection, schedule: Q04DX002 (ip), vehicle: saline with Tween-80) 92 % of control and 98 % of control; (endpoint: mean survival time, dose: 50.0 mg/kg/injection, schedule: Q04DX003 (ip), vehicle: saline with Tween-80) 92 % of control; under setting [13], 87 % of control and 93 % of control; under setting [3], 91 % of control and 96 % of control; under setting [4], 91 % of control and 94 % of control; (endpoint: mean survival time, dose: 200.0 mg/kg/injection, schedule: Q01DX001 (ip), vehicle: saline with Tween-80) 86 % of control. Besides, the T/C was 90 % of control (endpoint: mean survival time, dose: 200.0 mg/kg/injection, schedule: Q04DX002 (ip), vehicle: saline with Tween-80); 86 % of control under setting [8]; 90 % of control (endpoint: mean survival time, dose: 400.0 mg/kg/injection, schedule: Q04DX002 (ip), vehicle: saline with Tween-80); 88 % of control under setting [10].

On to `O=C1CC(CO)CN1CCc1ccccc1` (stereo not drawn), for which the T/C under setting [3] was 96 % of control, the T/C under setting [7] was 92 % of control and the T/C under setting [9] was 95 % of control.

As for `O=c1[nH]c2cc3ccccc3cc2c(=O)o1`, the T/C under setting [4] is 92 % of control, the T/C under setting [8] is 88 % of control and the T/C under setting [10] was 98 % of control.

With `CCCCCCN(CCCCCC)CC(O)c1ccncc1` (stereo not drawn), the T/C runs as follows: (endpoint: mean survival time, dose: 25.0 mg/kg/injection, schedule: Q04DX003 (ip), vehicle: saline sonified) 100 % of control; (endpoint: mean survival time, dose: 50.0 mg/kg/injection, schedule: Q04DX003 (ip), vehicle: saline sonified) 92 % of control; (endpoint: mean survival time, dose: 100.0 mg/kg/injection, schedule: Q04DX003 (ip), vehicle: saline sonified) 100 % of control.

Turning to `NNC(=O)c1cc(NN)ccn1`, the T/C is, setting by setting: under setting [2], 102 % of control; under setting [3], 100 % of control; under setting [4], 100 % of control; under setting [8], 98 % of control.

For the molecule `Nc1cc(Sc2ccc(Cl)cc2)nc(N)n1`, the T/C under setting [11] is 102 % of control, the T/C under setting [12] is 102 % of control and the T/C under setting [13] was 98 % of control.

On to `CC1(C)CC(OP(=O)(OC2CC(C)(C)N(O)C(C)(C)C2)N2CC2)CC(C)(C)N1O`, for which the T/C runs as follows: (endpoint: mean survival time, dose: 12.5 mg/kg/injection, schedule: Q01DX009 (ip), vehicle: water) 102 % of control; (endpoint: mean survival time, dose: 25.0 mg/kg/injection, schedule: Q01DX009 (ip), vehicle: water) 113 % of control and 104 % of control; (endpoint: mean survival time, dose: 50.0 mg/kg/injection, schedule: Q01DX009 (ip), vehicle: water) 110 % of control; (endpoint: mean survival time, dose: 100.0 mg/kg/injection, schedule: Q01DX009 (ip), vehicle: water) 112 % of control.

Regarding `CN=C(N)N/N=C(\C)c1ccc2c(c1)Cc1cc(/C(C)=N/NC(N)=NC)ccc1-2`, the T/C runs as follows: (endpoint: median survival time, dose: 0.37 mg/kg/injection, schedule: Q01DX009 (ip), vehicle: saline with Tween-80) 118 % of control and 124 % of control; (endpoint: median survival time, dose: 3.0 mg/kg/injection, schedule: Q01DX009 (ip), vehicle: saline with Tween-80) 121 % of control; (endpoint: median survival time, dose: 6.0 mg/kg/injection, schedule: Q01DX009 (ip), vehicle: saline with Tween-80) 92 % of control and 95 % of control.

Turning to `OC1OCCOC1O` (stereo not drawn), the T/C by setting is: (endpoint: mean survival time, dose: 100.0 mg/kg/injection, schedule: Q01DX009 (ip), vehicle: saline) 114 % of control; under setting [5], 99 % of control; (endpoint: mean survival time, dose: 200.0 mg/kg/injection, schedule: Q01DX009 (ip), vehicle: saline) 114 % of control; under setting [6], 99 % of control; (endpoint: mean survival time, dose: 400.0 mg/kg/injection, schedule: Q01DX009 (ip), vehicle: saline) 121 % of control; under setting [14], 115 % of control.

On to `OCN(CO)c1ccc2c(c1)Cc1cc(Cl)ccc1-2`, for which the T/C was 97 % of control under setting [5], 100 % of control under setting [6] and 91 % of control under setting [14].

As to `CC(=O)c1ccc2c3ccccc3n(C)c2c1`, the T/C runs as follows: (endpoint: mean survival time, dose: 50.0 mg/kg/injection, schedule: Q01DX009 (ip), vehicle: Klucel (hydroxypropylcellulose) (HPC)) 93 % of control; (endpoint: mean survival time, dose: 100.0 mg/kg/injection, schedule: Q01DX009 (ip), vehicle: Klucel (hydroxypropylcellulose) (HPC)) 93 % of control; (endpoint: mean survival time, dose: 200.0 mg/kg/injection, schedule: Q01DX009 (ip), vehicle: Klucel (hydroxypropylcellulose) (HPC)) 93 % of control.

Take `CC(C)(C)C1=CC(C(C)(C)C)CCC1=O` (stereo not drawn): the T/C is 94 % of control (endpoint: mean survival time, dose: 100.0 mg/kg/injection, schedule: Q01DX009 (ip), vehicle: acetone) and 94 % of control (endpoint: mean survival time, dose: 200.0 mg/kg/injection, schedule: Q01DX009 (ip), vehicle: acetone).

Take `CN(C=O)NC(=O)N(CCCl)N=O`: the T/C by setting is: (endpoint: median survival time, dose: 3.12 mg/kg/injection, schedule: Q01DX001 (ip), vehicle: saline) 176 % of control and 200 % of control; (endpoint: median survival time, dose: 6.25 mg/kg/injection, schedule: Q01DX001 (ip), vehicle: saline) 197 % of control and 312 % of control; (endpoint: median survival time, dose: 12.5 mg/kg/injection, schedule: Q01DX001 (ip), vehicle: saline) 370 % of control and 375 % of control; (endpoint: median survival time, dose: 25.0 mg/kg/injection, schedule: Q01DX001 (ip), vehicle: saline) 370 % of control and 375 % of control; (endpoint: median survival time, dose: 50.0 mg/kg/injection, schedule: Q01DX001 (ip), vehicle: saline) 87 % of control.

Take `C=C(C)CN=C=S`: the T/C under setting [4] was 98 % of control.
